# Laboratory results reported in patent US7420056B2, “Substituted bicyclic imidazo-3-ylamine compounds” (Gruenenthal GmbH, priority 2004, dated 2008).
# Counter-ions that a name gives are not always drawn.
# Molecular target: mGluR5 receptor (Sus scrofa, UniProt I3LUI7)
# Experiment: Affinity for the mGluR5 receptor: inhibition of 3[H]-MPEP binding in pig brain homogenate
# Settings: 10 μM compound, 5 nM 3[H]-MPEP, read-out: mGluR5 receptor inhibition of ^3[H]-MPEP binding [10 μM] in % at a concentration of the example compounds of 10 μM
# In short: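 Pig brain membranes (450 μg protein; hemispheres without medulla, cerebellum and pons) in 30 mM Hepes pH 8.0 were incubated 60 min at room temperature with 5 nM [3H]-MPEP and compound at 10 μM. Bound radioactivity was filtered and counted. Nonspecific binding was defined with 10 μM MPEP.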
# Sequence of mGluR5 receptor (I3LUI7 19-1212): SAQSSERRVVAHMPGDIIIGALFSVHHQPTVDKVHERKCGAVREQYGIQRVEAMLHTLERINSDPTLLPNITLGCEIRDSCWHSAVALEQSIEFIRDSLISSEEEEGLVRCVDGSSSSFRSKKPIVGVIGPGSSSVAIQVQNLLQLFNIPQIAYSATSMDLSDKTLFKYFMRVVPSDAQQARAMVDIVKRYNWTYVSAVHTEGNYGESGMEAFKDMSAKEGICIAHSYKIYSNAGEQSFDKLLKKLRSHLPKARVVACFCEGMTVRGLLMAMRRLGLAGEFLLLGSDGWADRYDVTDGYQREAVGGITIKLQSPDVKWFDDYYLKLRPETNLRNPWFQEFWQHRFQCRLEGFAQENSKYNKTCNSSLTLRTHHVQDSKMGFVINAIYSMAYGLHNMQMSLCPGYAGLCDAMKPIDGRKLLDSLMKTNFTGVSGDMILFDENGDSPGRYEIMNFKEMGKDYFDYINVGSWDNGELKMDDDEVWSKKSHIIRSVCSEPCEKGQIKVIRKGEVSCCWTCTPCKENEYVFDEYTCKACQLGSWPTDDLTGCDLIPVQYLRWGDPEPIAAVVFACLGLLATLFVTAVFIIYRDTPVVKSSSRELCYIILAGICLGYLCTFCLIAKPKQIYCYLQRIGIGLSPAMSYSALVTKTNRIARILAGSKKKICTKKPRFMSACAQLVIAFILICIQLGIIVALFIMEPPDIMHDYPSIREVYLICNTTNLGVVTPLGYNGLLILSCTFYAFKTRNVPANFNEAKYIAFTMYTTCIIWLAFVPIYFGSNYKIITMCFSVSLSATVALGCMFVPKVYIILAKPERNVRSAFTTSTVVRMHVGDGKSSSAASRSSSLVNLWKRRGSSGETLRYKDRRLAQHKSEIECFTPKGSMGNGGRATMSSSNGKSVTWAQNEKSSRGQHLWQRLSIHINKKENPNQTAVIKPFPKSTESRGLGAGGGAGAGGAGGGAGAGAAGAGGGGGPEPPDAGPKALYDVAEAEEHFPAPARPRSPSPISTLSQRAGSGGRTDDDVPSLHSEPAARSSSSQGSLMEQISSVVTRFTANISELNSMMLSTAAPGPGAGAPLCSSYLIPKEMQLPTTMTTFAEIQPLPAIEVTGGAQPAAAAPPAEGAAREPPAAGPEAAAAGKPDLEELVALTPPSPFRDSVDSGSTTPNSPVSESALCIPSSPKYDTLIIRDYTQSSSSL
row,SMILES,inhibition at 10 µM
1,"CCCC(C)(C)Nc1c(-c2ccc(C#Cc3ccccc3)s2)nc2c(Br)cc(Br)cn12 [Example 236, 6,8-dibromo-N-(2-methylpentan-2-yl)-2-(5-(phenylethynyl)thiophen-2-yl)imidazo[1,2-a]pyridin-3-amine]",66%
2,"CC(C)(C)CC(C)(C)Nc1c(-c2ccc(C#Cc3ccccc3)s2)nc2ccc(Cl)cn12 [Example 62, [6-chloro-2-(5-phenylethynyl-thiophen-2-yl)-imidazo[1,2-a]pyridin-3-yl]-(1,1,3,3-tetramethyl-butyl)-amine]",26%
3,"Cc1ccc2nc(-c3ccc(C#Cc4ccccn4)s3)c(NC(C)(C)CC(C)(C)C)n2c1 [Example 270, 6-methyl-2-(5-(pyridin-2-ylethynyl)thiophen-2-yl)-N-(2,4,4-trimethylpentan-2-yl)imidazo[1,2-a]pyridin-3-amine]",93%
4,"Clc1ccc2nc(-c3ccc(C#Cc4ccccn4)o3)c(NC3CCCCC3)n2c1 [Example 317, 6-chloro-N-cyclohexyl-2-(5-(pyridin-2-ylethynyl)furan-2-yl)imidazo[1,2-a]pyridin-3-amine]",58%
5,"C(#Cc1ccc(-c2nc3ccccn3c2Nc2ccco2)o1)c1ccccc1 [Example 224, N-(furan-2-yl)-2-(5-(phenylethynyl)furan-2-yl)imidazo[1,2-a]pyridin-3-amine]",69%
6,"CC(C)c1ccn2c(NC(C)(C)CC(C)(C)C)c(-c3ccc(C#Cc4ccccn4)s3)nc2c1 [Example 305, 7-isopropyl-2-(5-(pyridin-2-ylethynyl)thiophen-2-yl)-N-(2,4,4-trimethylpentan-2-yl)imidazo[1,2-a]pyridin-3-amine]",75%
7,"Cc1ccc2nc(-c3ccc(C#Cc4ccccn4)o3)c(NC3CCCC3)n2c1 [Example 272, N-cyclopentyl-6-methyl-2-(5-(pyridin-2-ylethynyl)furan-2-yl)imidazo[1,2-a]pyridin-3-amine]",72%
8,"Fc1ccc(Nc2c(-c3ccc(C#Cc4ccccn4)cc3)nc3cnccn23)cc1 [Example 242, N-(4-fluorophenyl)-2-(4-(pyridin-2-ylethynyl)phenyl)imidazo[1,2-a]pyrazin-3-amine]",91%
9,"CC(Nc1c(-c2ccc(C#Cc3ccccc3)s2)nc2c(OCc3ccccc3)cccn12)c1ccccc1 (stereo not drawn) [Example 30, [8-benzyloxy-2-(5-phenylethynyl-thiophen-2-yl)-imidazo[1,2-a]pyridin-3-yl]-(1-phenyl-ethyl)-amine]",73%
10,"COc1cccc(CNc2c(-c3ccc(C#Cc4ccccc4)s3)nc3c(C)cccn23)c1 [Example 22, (3-methoxy-benzyl)-[8-methyl-2-(5-phenylethynyl-thiophen-2-yl)-imidazo[1,2-a]pyridin-3-yl]-amine]",84%
11,"CCCC(C)(C)Nc1c(-c2ccc(C#Cc3ccccc3)s2)nc2cnccn12 [Example 205, N-(2-methylpentan-2-yl)-2-(5-(phenylethynyl)thiophen-2-yl)imidazo[1,2-a]pyrazin-3-amine]",92%
12,"CC(C)(C)Nc1c(-c2ccc(C#Cc3ccccn3)o2)nc2ccc(Cl)cn12 [Example 316, N-tert-butyl-6-chloro-2-(5-(pyridin-2-ylethynyl)furan-2-yl)imidazo[1,2-a]pyridin-3-amine]",55%
13,"Cc1ccn2c(NC(C)(C)C)c(-c3ccc(C#Cc4ccccn4)cc3)nc2c1 [Example 278, N-tert-butyl-7-methyl-2-(4-(pyridin-2-ylethynyl)phenyl)imidazo[1,2-a]pyridin-3-amine]",93%
14,"C(#Cc1ccc(-c2nc3cnccn3c2N(Cc2cccnc2)Cc2cccnc2)s1)c1ccccc1 [Example 79, [2-(5-phenylethynyl-thiophen-2-yl)-imidazo[1,2-a]pyrazin-3-yl]-bis-pyridin-3-ylmethyl-amine]",35%
15,"CCc1ccn2c(NCc3ccccc3Cl)c(-c3ccc(C#Cc4ccccc4)s3)nc2c1 [Example 45, (2-chloro-benzyl)-[7-ethyl-2-(5-phenylethynyl-thiophen-2-yl)-imidazo[1,2-a]pyridin-3-yl]-amine]",93%
16,"Clc1ccc2nc(-c3ccc(C#Cc4ccccn4)cc3)c(NC3CCCCC3)n2c1 [Example 315, 6-chloro-N-cyclohexyl-2-(4-(pyridin-2-ylethynyl)phenyl)imidazo[1,2-a]pyridin-3-amine]",75%
17,"CC(C)(C)CC(C)(C)Nc1c(-c2cccc(C#Cc3ccccn3)c2)nc2ccc(Cl)cn12 [Example 313, 6-chloro-2-(3-(pyridin-2-ylethynyl)phenyl)-N-(2,4,4-trimethylpentan-2-yl)imidazo[1,2-a]pyridin-3-amine]",33%
18,"COc1cccc(CCNc2c(-c3cc(C#Cc4ccccc4)cs3)nc3nc(C)ccn23)c1 [Example 217, N-(3-methoxyphenethyl)-7-methyl-2-(4-(phenylethynyl)thiophen-2-yl)imidazo[1,2-a]pyrimidin-3-amine]",62%
19,"COc1cccc(CCNc2c(-c3cc(C#Cc4ccccc4)cs3)nc3cccc(C)n23)c1 [Example 199, N-(3-methoxyphenethyl)-5-methyl-2-(4-(phenylethynyl)thiophen-2-yl)imidazo[1,2-a]pyridin-3-amine]",57%
20,"Cc1ccn2c(NCC3CCCCC3)c(-c3ccc(C#Cc4ccccc4)s3)nc2c1 [Example 4, cyclohexylmethyl-[7-methyl-2-(5-phenylethynyl-thiophen-2-yl)-imidazo[1,2-a]pyridin-3-yl]-amine]",91%
21,"CC(C)(C)CC(C)(C)Nc1c(-c2cccc(C#Cc3ccccn3)c2)nc2cnccn12 [Example 239, 2-(3-(pyridin-2-ylethynyl)phenyl)-N-(2,4,4-trimethylpentan-2-yl)imidazo[1,2-a]pyrazin-3-amine]",60%
22,"COc1cccc(CNc2c(-c3ccc(C#Cc4ccccc4)s3)nc3cc(C)cc(C)n23)c1 [Example 23, [5,7-dimethyl-2-(5-phenylethynyl-thiophen-2-yl)-imidazo[1,2-a]pyridin-3-yl]-(3-methoxy-benzyl)-amine]",86%
23,"CC(C)(C)Nc1c(-c2ccc(C#Cc3ccccn3)s2)nc2ccc(Cl)cn12 [Example 311, N-tert-butyl-6-chloro-2-(5-(pyridin-2-ylethynyl)thiophen-2-yl)imidazo[1,2-a]pyridin-3-amine]",86%

# Same assay, conditions: 3[H]-MPEP binding
row,SMILES,IC50
1,"COc1cncc(C#Cc2ccc(-c3nc4cnccn4c3NC(C)(C)C)s2)c1 [Example 171, N-tert-butyl-2-(5-((5-methoxypyridin-3-yl)ethynyl)thiophen-2-yl)imidazo[1,2-a]pyrazin-3-amine hydrochloride]",360 nM
2,"COc1cccc(C#Cc2ccc(-c3nc4cnccn4c3NC(C)(C)C)s2)c1 [Example 113, N-tert-butyl-2-(5-((3-methoxyphenyl)ethynyl)thiophen-2-yl)imidazo[1,2-a]pyrazin-3-amine hydrochloride]",75 nM
3,"Cc1cccc(C#Cc2cccc(-c3nc4cnccn4c3NC(C)(C)C)c2)n1 [Example 117, N-tert-butyl-2-(3-((6-methylpyridin-2-yl)ethynyl)phenyl)imidazo[1,2-a]pyrazin-3-amine]",880 nM
4,"CN(c1c(-c2ccc(C#Cc3ccccn3)s2)nc2cnccn12)C(C)(C)C [Example 143, N-tert-butyl-N-methyl-2-(5-(pyridin-2-ylethynyl)thiophen-2-yl)imidazo[1,2-a]pyrazin-3-amine]",3.2 nM
5,"CC(C)(C)Nc1c(-c2ccc(C#Cc3ccncc3)s2)nc2ccccn12 [Example 132, N-tert-butyl-2-(5-(pyridin-4-ylethynyl)thiophen-2-yl)imidazo[1,2-a]pyridin-3-amine hydrochloride]",16 nM
6,"C(#Cc1ccc(-c2nc3cnccn3c2N2CCCC2)s1)c1ccccc1 [Example 99, 2-(5-(phenylethynyl)thiophen-2-yl)-3-(pyrrolidin-1-yl)imidazo[1,2-a]pyrazine hydrochloride]",540 nM
7,"COC(=O)c1nccn2c(NC(C)(C)C)c(-c3ccc(C#Cc4ccccc4)s3)nc12 [Example 106, methyl-3-(tert-butylamino)-2-(5-(phenylethynyl)thiophen-2-yl)imidazo[1,2-a]pyrazine-8-carboxylate]",210 nM
8,"CC(C)(C)Nc1c(-c2ccc(C#Cc3ccc(O)cc3)s2)nc2cnccn12 [Example 121, 4-((5-(3-(tert-butylamino)imidazo[1,2-a]pyrazin-2-yl)thiophen-2-yl)ethynyl)phenol hydrochloride]",2540 nM
9,"Nc1c(-c2ccc(C#Cc3ccccn3)s2)nc2cnccn12 [Example 134, 2-(5-(pyridin-2-ylethynyl)thiophen-2-yl)imidazo[1,2-a]pyrazin-3-amine hydrochloride]",570 nM
10,"CC(C)(C)Nc1c(-c2ccc(C#Cc3ccc(N)nc3)s2)nc2cnccn12 [Example 128, 2-(5-((6-aminopyridin-3-yl)ethynyl)thiophen-2-yl)-N-tert-butylimidazo[1,2-a]pyrazin-3-amine hydrochloride]",15600 nM
11,"CC(C)(C)Nc1c(-c2ccc(C#Cc3ccc(C#N)cc3)s2)nc2cnccn12 [Example 144, 4-((5-(3-(tert-butylamino)imidazo[1,2-a]pyrazin-2-yl)thiophen-2-yl)ethynyl)benzonitrile hydrochloride]",3680 nM
12,"Cc1nc(C#Cc2ccccc2)ccc1-c1nc2cnccn2c1NC(C)(C)C [Example 118, N-tert-butyl-2-(2-methyl-6-(phenylethynyl)pyridin-3-yl)imidazo[1,2-a]pyrazin-3-amine]",6380 nM
13,"Cc1ccnc(C#Cc2ccc(-c3nc4cnccn4c3NC(C)(C)C)s2)c1 [Example 130, N-tert-butyl-2-(5-((4-methylpyridin-2-yl)ethynyl)thiophen-2-yl)imidazo[1,2-a]pyrazin-3-amine hydrochloride]",37 nM
